The text below walks through data of US9290529B2, “Carbonic anhydrase inhibitors and method of their production” (USTAV ORGANICKE CHEMIE A BIOCHEMIE AKADEMIE VED CESKE …, priority 2011, dated 2016).

One data set has as its system HCT116p53−/−. The data set can be described thus: MTT cytotoxicity assay, HCT116p53−/−. The format is cell-based, human. To be noted: 72 h. The source says: (§1) One of the parameters used as the basis for colorimetric assays is the metabolic activity of viable cells. For example, a microtiter assay which uses the tetrazolium salt MTT is now widely used to quantitate cell proliferation and cytotoxicity (Hájduch et al., Cytotechnology, 19, 1996, 243-245). For instance, this assay is used in drug screening programs and in chemosensitivity testing. Because tetrazolium salts are cleaved only by metabolically active cells, these assays exclusively detect viable cells. In the case of the MTT assay, yellow soluble tetrazolium salt is reduced to a coloured water-insoluble formazan salt. After it is solubilized, the formazan formed can easily and rapidly be quantified in a conventional ELISA plate reader at 570 nm (maximum absorbancy). The quantity of reduced formazan corresponds to the number of vital cells in the culture.
(§2) All cells were purchased from the […] (ATCC), unless otherwise indicated: the CEM line are highly chemosensitive T-lymphoblastic leukemia cells, K562 cells were derived from patient with […] with bcr-abl translocation, A549 line is lung adenocarcinoma, HCT116 is colorectal tumor cell line and its p53 gene knock-down counterpart (HCT116p53−) is a model of human cancers with p53 mutation frequently associated with poor prognosis. The daunorubicin resistant subline of CEM cells (CEM-DNR bulk) and paclitaxel resistant subline K562-tax were selected in our laboratory by the cultivation of maternal cell lines in increasing concentrations of daunorubicine or paclitaxel, respectively (Noskova et al., Neoplasma 49, 2002, 418). The CEM-DNR bulk cells overexpress MRP-1 protein, while K562-tax cells overexpress P-glycoprotein, both proteins belong to family of ABC transporters and are involved in primary and/or acquired multidrug resistance phenomenon (Noskova et al., Neoplasma 49, 2002, 418). The cells were maintained in Nunc/Corning 80 cm^2 plastic tissue culture flasks and cultured in cell culture medium (DMEM/RPMI 1640 with 5 g/l glucose, 2 mM glutamine, 100 U/ml penicillin, 100 μg/ml streptomycin, 10% fetal calf serum, and NaHCO3).
(§3) This assay was performed according to Hajduch et al., Anti-Cancer Drugs 10, 1997, 1007. Cell suspensions were prepared and diluted according to the particular cell type and the expected target cell density (2 500-30 000 cells/well based on cell growth characteristics). Cells were added by pipette (80 μl) into 96-well microtiter plates. Inoculates were allowed a pre-incubation period of 24 h at 37° C. and 5% CO2 for stabilization. Four-fold dilutions, in 20-μl aliquots, of the intended test concentration were added to the microtiter plate wells at time zero. All test compound concentrations were examined in duplicate. Incubation of the cells with the test compounds lasted for 72 h at 37° C., in a 5% CO2 atmosphere at 100% humidity. At the end of the incubation period, the cells were assayed using MTT. Aliquots (10 μl) of the MTT stock solution were pipetted into each well and incubated for a further 1-4 h. After this incubation period the formazan produced was dissolved by the addition of 100 μl/well of 10% aq SDS (pH=5.5), followed by a further incubation at 37° C. overnight. The optical density (OD) was measured at 540 nm with a Labsystem iEMS Reader MF. Tumor cell survival (TCS) was calculated using the following equation: TCS=(ODdrug-exposed well/mean ODcontrol wells)×100%. The TCS50 value, the drug concentration lethal to 50% of the tumor cells, was calculated from appropriate dose-response curves.
On the technique in general: Tetrazolium assays rely on reduction of a dye to a coloured formazan, in cell work by metabolically active cells.

The next data set relates to NMRI female mice. The data set can be described thus: Dose finding study (MTD, DLT), single intraperitoneal dose. How it is done: Both compounds were dissolved in 10% dimethylsulfoxide/water (vol/vol) at stock concentration of 10 mg/ml and applied intraperitoneally to NMRI female mice (minimum 3/group) in ascending doses until the MTD was reached. Animals were housed in specific pathogen free conditions, water and food ad libitum.

The next data set has as its system CEM-DNR. The data set can be described thus: MTT cytotoxicity assay, CEM-DNR. The format is cell-based, human. To be noted: 72 h.
Excerpt: as §1, §2, §3

Data set [1] is described as follows: Orientational pharmacokinetics, serum concentrations by HPLC. To be noted: intraperitoneally at the MTD, female NMRI mice.
Method: The ability of compounds to achieve therapeutically relevant concentrations in biological fluids was tested in orientational pharmacokinetics experiment. […] The blood was collected on ice and processed for serum separation within 60 minutes after sampling. Serum was evaporated to dryness on a device ThermoScientific SPD SpeedVac (72 h, 50° C.) until analyzed. Residues were precipitated by the 225 μl of acetonitrile with an addition of 25 μl of 10% SDS (w/w in water), then vortexed for 5 min and centrifuged 5 min at 14000 RPM at a room temperature. Aliquot of the supernatant was transferred into a 250 μl autosampler vial. […] Sensitivity range 0.2 or 0.02 A.U.F.S. (Absorbance Units Full Scale). An Ion-pair reverse phase chromatographic method with an isocratic elution 300 μl/min was used. Sample injection: 20 μl.
The subject of the next data set is K562. The data set can be described thus: MTT cytotoxicity assay, K562. The format is cell-based, human. As to conditions: 72 h.
Excerpt: as §1, §2, §3

In a further data set the test system is BJ. Kind of data set: MTT cytotoxicity assay, BJ. As to conditions: 72 h. The format is cell-based.
Excerpt: as §1, §3

Data set [2] has as its target T1, human carbonic anhydrase II (hCA II) (Homo sapiens, UniProt P00918).
T1 construct: purchased Sigma Aldrich C6165
The data set can be described thus: Colorimetric carbonic anhydrase inhibition assay (CO2 hydration, phenol red), hCA II. The format is biochemical. To be noted: 0° C., HEPES pH 7.0. On the procedure:
The compounds were assayed for inhibition activity of two isoforms of human carbonic anhydrase: hCA II and hCA IX. The human carbonic anhydrase II (HCA II) was purchased from Sigma Aldrich (Cat. No. C6165) in the form of lyophilized protein, which was dissolved before use in 10 mmol·l^−1 HEPES pH 7.0 to a concentration of 300 μmol·l^−1 and further diluted as required. Human carbonic anhydrase IX (HCA IX) was prepared by recombinant expression system in insect (Drosophila expression system, Invitrogen). […] This protein was further purified from media by chelating chromatography carrier His-Select Nickel Affinity Gel (Sigma, Cat No. P6611) and gel chromatography (Superdex 200 GL 30/300, GE Healthcare) according to the manufacturer's recommendations.
The principle of the method is based on measuring the rate of acidification of the solution that is observed as the color-shift of the acid-base-indicator (fenol red). The reaction was conducted in a glass tube placed in an ice bath (0° C., all stock solutions and enzymes were kept at the same temperature). […] This was followed by a CO2 saturation (stream flow 50 ml/min.) using a needle (18 G) up to color transition of fenol-red from red to yellow (typically 60 seconds by default). […] End point of reaction was determined by visual comparison with reference tube containing acid-base indicator (0.01% (wt./vol.) Fenol-red) and the pH adjusted to 7.0. […] Molar activity was calculated according to the formula:
[formula] where tB is the time of negative control without enzyme and tS is the time measured with an enzyme sample (and inhibitor), nprot is the number of moles of protein present in the sample. The value of IC50 for the inhibitor concentration corresponds inhibitor contraction required to decrease the specific activity to half of the value of non-inhibited enzyme. Selectivity towards CA IX inhibitor was calculated as the ratio of IC50 values for inhibition of HCA II against the value of IC50 for inhibition CA IX enzyme.

In the next data set the test system is A549. Kind of data set: MTT cytotoxicity assay, A549. The format is cell-based, human. As to conditions: 72 h.
Excerpt: as §1, §2, §3

A further data set deals with K562-TAX. The data set can be described thus: MTT cytotoxicity assay, K562-TAX. The format is cell-based, human. As to conditions: 72 h.
Excerpt: as §1, §2, §3

As usually defined, the IC50 is the midpoint of a concentration-inhibition curve. For the substance “8-methylensulfamide-8″-methoxy-3,3′-commo-bis(1,2-dicarba-3-cobalta(III)-closo-dodecabor)ate (1-) [CB-4]”, the IC50 was found to be 71.9 ± 3.4 µM in the data set with HCT116p53−/−; 74.5 ± 2.8 µM in the data set on CEM-DNR; 74.3 ± 3.7 µM in the data set on K562; 76.4 ± 3.3 µM in the data set with BJ; 5 µM in data set [2]; 95.5 ± 3.7 µM in the data set with A549. In the data set with K562-TAX, this substance displayed an IC50 of 55.2 ± 4.7 µM. For the same substance, the “dose limiting toxicity (DLT)” value with NMRI female mice (mouse, in vivo, ip) is “somnolence, apathy and local irritation”. Moreover, the “maximum tolerated dose (MTD)” value in the data set on NMRI female mice (single dose, intraperitoneally, NMRI female mice) turned out to be 125 mg/kg. In [1], this substance yielded a T1/2 of 6.5 h. Besides, the “pharmacokinetics under in vivo conditions” value in data set [1] is “linear pharmacokinetics”.
